What was measured:
[1] = test system: THP-1 TNFα release; assay: LPS-stimulation of THP-1 cells, TNF-α release by ELISA; type: cell-based; conditions: Homo sapiens, THP-1, 6 h; read-out: Inhibitor activity versus THP-1 TNFα release
Description: THP-1 cells were plated in 100 μl at a density of 4×10^4 cells/well in V-bottomed 96 well tissue culture treated plates and incubated at 37° C. in 5% CO2 for 16 hrs. 2 hrs after the addition of the inhibitor in 100 μl of tissue culture media, the cells were stimulated with LPS (E coli strain 005:B5, Sigma) at a final concentration of 1 μg/ml and incubated at 37° C. in 5% CO2 for 6 hrs. TNF-α levels were measured from cell-free supernatants by sandwich ELISA (R&D Systems #QTA00B).

[2] = molecular target: T1, p38 MAP Kinase a (Homo sapiens, UniProt Q16539); assay: p38 MAP Kinase activity, radiometric filter-binding assay (Upstate); type: biochemical; conditions: IC50 range; read-out: Inhibitor activity versus p38 MAPKa
T1 construct: purchased Upstate (Dundee UK)
Description: The ability of compounds to inhibit p38 MAP a Kinase activity was measured in an assay performed by Upstate (Dundee UK). In a final reaction volume of 25 μL, p38 MAP Kinase a (5-10 mU) is incubated with 25 mM Tris pH 7.5, 0.002 mMEGTA, 0.33 mg/mL myelin basic protein, 10 mM MgAcetate and [g-33P-ATP] (specific activity approx. 500 cpm/pmol, concentration as required). The reaction is initiated by the addition of the MgATP mix. After incubation for 40 minutes at room temperature, the reaction is stopped by the addition of 5 μL of a 3% phosphoric acid solution. 10 μL of the reaction is then spotted onto a P30 filtermat and washed three times for 5 minutes in 75 mM phosphoric acid and once in methanol prior to drying and scintillation counting.
Duplicate data points are generated from a 1/3 log dilution series of a stock solution in DMSO. Nine dilutions steps are made from a top concentration of 10 μM, and a ‘no compound’ blank is included. The standard radiometric filter-binding assay is performed at an ATP concentration at, or close to, the Km. Data from scintillation counts are collected and subjected to free-fit analysis by Prism software. From the curve generated, the concentration giving 50% inhibition is determined and reported.

T1 sequence (Q16539 whole entry): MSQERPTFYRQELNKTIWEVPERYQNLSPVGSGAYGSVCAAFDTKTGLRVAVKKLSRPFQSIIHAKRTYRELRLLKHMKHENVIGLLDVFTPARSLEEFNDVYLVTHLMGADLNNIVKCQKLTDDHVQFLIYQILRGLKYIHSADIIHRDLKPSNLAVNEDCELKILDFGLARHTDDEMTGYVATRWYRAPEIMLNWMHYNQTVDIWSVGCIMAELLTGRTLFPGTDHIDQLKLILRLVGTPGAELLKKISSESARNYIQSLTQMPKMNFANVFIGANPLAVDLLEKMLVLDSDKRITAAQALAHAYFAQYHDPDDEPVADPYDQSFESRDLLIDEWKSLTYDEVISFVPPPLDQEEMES

| IC50 [1] | IC50 [2] | Structure (SMILES) |
| --- | --- | --- |
| < 100 nM | 100 to 1000 nM | CC(C)(C)OC[C@H](NCCc1cc(F)c(-n2c(N)c(C(=O)c3ccc(F)cc3)ccc2=O)c(F)c1)C(=O)OC1CCCC1 [Example 31, Cyclopentyl N-(2-{4-[6-amino-5-(4-fluorobenzoyl)-2-oxopyridin-1(2H)-yl]-3,5-difluorophenyl}ethyl)-O-tert-butyl-L-serinate] |
| < 100 nM | < 100 nM | Nc1c(C(=O)c2ccc(F)cc2F)ccc(=O)n1-c1c(F)cc(CCN[C@H](C(=O)OC2CCCC2)c2ccccc2)cc1F [Example 34, Cyclopentyl (2S)-[(2-{4-[6-amino-5-(2,4-difluorobenzoyl)-2-oxopyridin-1(2H)-yl]-3,5-difluorophenyl}ethyl)amino](phenyl)acetate] |
| < 100 nM | 100 to 1000 nM | CC(C)C[C@H](NCCc1cc(F)c(-n2c(N)c(C(=O)c3ccc(F)cc3F)ccc2=O)c(F)c1)C(=O)OC(C)(C)C [Example 37, tert-butyl N-(2-{4-[6-amino-5-(2,4-difluorobenzoyl)-2-oxopyridin-1(2H)-yl]-3,5-difluorophenyl}ethyl)-L-leucinate] |
| < 100 nM | 100 to 1000 nM | CC(C)C[C@@H](NCCc1cc(F)c(-n2c(N)c(C(=O)c3ccc(F)cc3F)ccc2=O)c(F)c1)C(=O)OC1CCCC1 [Example 38, Cyclopentyl N-(2-{4-[6-amino-5-(2,4-difluorobenzoyl)-2-oxopyridin-1(2H)-yl]-3,5-difluorophenyl}ethyl)-D-leucinate] |
| < 100 nM | 100 to 1000 nM | CC(C)C[C@@H](NCCc1cc(F)c(-n2c(N)c(C(=O)c3ccc(F)cc3F)ccc2=O)c(F)c1)C(=O)OC(C)(C)C [Example 39, tert-butyl N-(2-{4-[6-amino-5-(2,4-difluorobenzoyl)-2-oxopyridin-1(2H)-yl]-3,5-difluorophenyl}ethyl)-D-leucinate] |
| < 100 nM | < 100 nM | CC(C)(C)OC[C@H](NCCc1cc(F)c(-n2c(N)c(C(=O)c3ccc(F)cc3F)ccc2=O)c(F)c1)C(=O)OC1CCCC1 [Example 40, Cyclopentyl N-(2-{4-[6-amino-5-(2,4-difluorobenzoyl)-2-oxopyridin-1(2H)-yl]-3,5-difluorophenyl}ethyl)-O-tert-butyl-L-serinate] |
| < 100 nM | < 100 nM | CC(C)(C)OC[C@H](NCCc1cc(F)c(-n2c(N)c(C(=O)c3ccc(F)cc3F)ccc2=O)c(F)c1)C(=O)OC(C)(C)C [Example 41, tert-butyl N-(2-{4-[6-amino-5-(2,4-difluorobenzoyl)-2-oxopyridin-1(2H)-yl]-3,5-difluorophenyl}ethyl)-O-tert-butyl-L-serinate] |
| < 100 nM | < 100 nM | Nc1c(C(=O)c2ccc(F)cc2F)ccc(=O)n1-c1c(F)cc(CCN[C@@H](C(=O)OC2CCCC2)c2ccccc2)cc1F [Example 42, Cyclopentyl (2R)-[(2-{4-[6-amino-5-(2,4-difluorobenzoyl)-2-oxopyridin-1(2H)-yl]-3,5-difluorophenyl}ethyl)amino](phenyl)acetate] |
| < 100 nM | < 100 nM | CC(C)[C@H](NCCc1cc(F)c(-n2c(N)c(C(=O)c3ccc(F)cc3F)ccc2=O)c(F)c1)C(=O)OC1CCCC1 [Example 43, Cyclopentyl N-[2-(4-{6-amino-5-[(2,4-difluorophenyl)carbonyl]-2-oxopyridin-1(2H)-yl}-3,5 difluorophenyl)ethyl]-L-valinate] |

| Structure (SMILES) | IC50 [1] | IC50 [2] |
| --- | --- | --- |
| Nc1c(C(=O)c2ccc(F)cc2F)ccc(=O)n1-c1c(F)cc(CCN[C@H](C(=O)OC2CCCC2)C2CCCCC2)cc1F [Example 36, Cyclopentyl (2S)-[(2-{4-[6-amino-5-(2,4-difluorobenzoyl)-2-oxopyridin-1(2H)-yl]-3,5-difluorophenyl}ethyl)amino](cyclohexyl)acetate] | < 100 nM | 100 to 1000 nM |

— patent publication US20100267774A1, “P38 MAP KINASE INHIBITORS” (CHROMA THERAPEUTICS LTD., priority 2007, published 2010)
